Reference: patent US12185723B2, “Herbicidally active 3-phenylisoxazoline-5-carboxamides of s-containing cyclopentenylcarboxylic esters” (Bayer Aktiengesellschaft, priority 2019, dated 2025)

How the values were obtained:
Type in all cases: in vivo
Amaranthus retroflexus = experiment: Post-emergence herbicidal action against AMARE
Procedure, shortened: (§1)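 Post-emergence application onto green parts at the one-leaf stage, 2 to 3 weeks after sowing in sandy loam. Spray carried 0.5% additive at a water rate of 600 l/ha. Percent activity assessed by eye at about 3 weeks, where 100% means plants died and 0% matches controls.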

Lolium rigidum = experiment: Post-emergence herbicidal action against LOLRI; conditions: visual rating about 3 weeks after treatment
Procedure, shortened: as §1

Avena fatua = experiment: Post-emergence herbicidal action against AVEFA; conditions: visual rating about 3 weeks after treatment
Procedure, shortened: as §1

Stellaria media = experiment: Post-emergence herbicidal action against STEME
Procedure, shortened: as §1

DIGSA = experiment: Post-emergence herbicidal action against DIGSA; conditions: visual rating about 3 weeks after treatment
Procedure, shortened: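 Greenhouse-grown plants sprayed at one-leaf stage (2–3 weeks after sowing) with WP or EC formulations as aqueous suspension/emulsion plus 0.5% additive, 600 l/ha water. Activity rated visually about 3 weeks later versus untreated controls, 100% = plants dead, 0% = like controls.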

Hordeum murinum = experiment: Post-emergence herbicidal action against HORMU
Procedure, shortened: as §1

Abutilon theophrasti = experiment: Post-emergence herbicidal action against ABUTH; conditions: visual rating about 3 weeks after treatment
Procedure, shortened: as §1

Echinochloa crus-galli = experiment: Post-emergence herbicidal action against ECHCG; conditions: visual rating about 3 weeks after treatment
Procedure, shortened: as §1

Matricaria inodora = experiment: Post-emergence herbicidal action against MATIN
Procedure, shortened: as §1

Setaria viridis = experiment: Post-emergence herbicidal action against SETVI; conditions: visual rating about 3 weeks after treatment
Procedure, shortened: as §1

Polygonum convolvulus = experiment: Post-emergence herbicidal action against POLCO
Procedure, shortened: as §1

Veronica persica = experiment: Post-emergence herbicidal action against VERPE
Procedure, shortened: as §1

Pharbitis purpurea = experiment: Post-emergence herbicidal action against PHBPU
Procedure, shortened: as §1

Alopecurus myosuroides = experiment: Post-emergence herbicidal action against ALOMY; conditions: visual rating about 3 weeks after treatment
Procedure, shortened: as §1

Viola tricolor = experiment: Post-emergence herbicidal action against VIOTR
Procedure: Post-Emergence Herbicidal Action Against Harmful Plants and Crop Plant Compatibility Seeds of monocotyledonous and dicotyledonous weeds and crop plants are placed in sandy loam in plastic or wood-fibre pots, covered with soil and cultivated in a greenhouse under controlled growth conditions. 2 to 3 weeks after sowing, the test plants are treated at the one-leaf stage. The compounds of the invention, formulated in the form of wettable powders (WP) or as emulsion concentrates (EC), are then sprayed onto the green parts of the plants as aqueous suspension or emulsion with addition of 0.5% additive at a water application rate of 600 l/ha (converted). After the test plants have been kept in the greenhouse under optimum growth conditions for about 3 weeks, the activity of the preparations is rated visually in comparison to untreated controls. For example, 100% activity=the plants have died, 0% activity=like control plants. [table]

[1] = 80 g a.i./ha, visual rating about 3 weeks after treatment

Row | SMILES | Herbicidal action against [%] AMARE (Amaranthus retroflexus; 20 g a.i./ha) [%] | Herbicidal action against [%] AMARE (Amaranthus retroflexus; [1]) [%] | Herbicidal action against [%] LOLRI (Lolium rigidum; 20 g a.i./ha) [%] | Herbicidal action against [%] LOLRI (Lolium rigidum; 80 g a.i./ha) [%] | Herbicidal action against [%] AVEFA (Avena fatua; 20 g a.i./ha) [%] | Herbicidal action against [%] AVEFA (Avena fatua; 80 g a.i./ha) [%] | Herbicidal action against [%] STEME (Stellaria media; 20 g a.i./ha) [%] | Herbicidal action against [%] STEME (Stellaria media; 80 g a.i./ha) [%] | Herbicidal action against [%] DIGSA (DIGSA; 20 g a.i./ha) [%] | Herbicidal action against [%] DIGSA (DIGSA; 80 g a.i./ha) [%] | Herbicidal action against [%] HORMU (Hordeum murinum; 20 g a.i./ha) [%] | Herbicidal action against [%] HORMU (Hordeum murinum; 80 g a.i./ha) [%] | Herbicidal action against [%] ABUTH (Abutilon theophrasti; 80 g a.i./ha) [%] | Herbicidal action against [%] ECHCG (Echinochloa crus-galli; 80 g a.i./ha) [%] | Herbicidal action against [%] MATIN (Matricaria inodora; [1]) [%] | Herbicidal action against [%] SETVI (Setaria viridis; 80 g a.i./ha) [%] | Herbicidal action against [%] VERPE (Veronica persica; 20 g a.i./ha) [%] | Herbicidal action against [%] VERPE (Veronica persica; 80 g a.i./ha) [%] | Herbicidal action against [%] ALOMY (Alopecurus myosuroides; 20 g a.i./ha) [%] | Herbicidal action against [%] ALOMY (Alopecurus myosuroides; 80 g a.i./ha) [%] | further results
1 | CSCCOC(=O)C1C=CC(NC(=O)C2(C(F)(F)F)CC(c3cc(F)cc(C#N)c3)=NO2)C1 (mixture of isomers) [Example I-38] | 80 | 80 | 90 | 90 | 90 | 90 | 100 | 100 | 90 | 90 | 80 | 80 | 90 | 90 | 80 | 90 | 90 | 90 | 80 | 90 | Herbicidal action against [%] ABUTH (Abutilon theophrasti; 20 g a.i./ha): 90%; Herbicidal action against [%] ECHCG (Echinochloa crus-galli; 20 g a.i./ha): 90%; Herbicidal action against [%] SETVI (Setaria viridis; 20 g a.i./ha): 90%; Herbicidal action against [%] POLCO (Polygonum convolvulus; 20 g a.i./ha): 90%; Herbicidal action against [%] POLCO (Polygonum convolvulus; 80 g a.i./ha): 90%; Herbicidal action against [%] PHBPU (Pharbitis purpurea; 80 g a.i./ha): 90%; Herbicidal action against [%] VIOTR (Viola tricolor; 20 g a.i./ha): 100%; Herbicidal action against [%] VIOTR (Viola tricolor; 80 g a.i./ha): 80%
2 | CSCCOC(=O)C1C=CC(NC(=O)C2(C(F)(F)F)CC(c3cccc(C#N)c3)=NO2)C1 (mixture of isomers) [Example I-44] | 80 | 80 | 90 | 90 | 80 | 90 | – | 90 | 90 | 90 | 80 | 80 | 80 | 80 | 80 | 90 | 90 | 90 | 90 | 90 | Herbicidal action against [%] ECHCG (Echinochloa crus-galli; 20 g a.i./ha): 80%; Herbicidal action against [%] SETVI (Setaria viridis; 20 g a.i./ha): 80%; Herbicidal action against [%] POLCO (Polygonum convolvulus; 20 g a.i./ha): 80%; Herbicidal action against [%] POLCO (Polygonum convolvulus; 80 g a.i./ha): 90%; Herbicidal action against [%] PHBPU (Pharbitis purpurea; 80 g a.i./ha): 80%; Herbicidal action against [%] VIOTR (Viola tricolor; 80 g a.i./ha): 90%
3 | CSCCOC(=O)C1C=CC(NC(=O)C2(C)CC(c3cc(Cl)cc(C#N)c3)=NO2)C1 (mixture of isomers) [Example I-49] | 90 | 100 | 90 | 90 | 90 | 90 | 90 | 90 | 80 | 90 | 80 | 80 | 80 | 80 | 80 | 80 | 80 | 90 | 90 | 100 | Herbicidal action against [%] PHBPU (Pharbitis purpurea; 20 g a.i./ha): 80%; Herbicidal action against [%] VIOTR (Viola tricolor; 20 g a.i./ha): 90%; Herbicidal action against [%] VIOTR (Viola tricolor; 80 g a.i./ha): 80%
4 | CSCCOC(=O)C1C=CC(NC(=O)C2(C)CC(c3cc(F)cc(F)c3)=NO2)C1 (stereo not drawn) [Example I-06] | 80 | 80 | 100 | 100 | 100 | 100 | 90 | 90 | 90 | 90 | 90 | 90 | 80 | 90 | 80 | 90 | 80 | 90 | 100 | 100 | Herbicidal action against [%] ABUTH (Abutilon theophrasti; 20 g a.i./ha): 80%; Herbicidal action against [%] ECHCG (Echinochloa crus-galli; 20 g a.i./ha): 90%; Herbicidal action against [%] SETVI (Setaria viridis; 20 g a.i./ha): 80%; Herbicidal action against [%] POLCO (Polygonum convolvulus; 20 g a.i./ha): 90%; Herbicidal action against [%] POLCO (Polygonum convolvulus; 80 g a.i./ha): 90%; Herbicidal action against [%] PHBPU (Pharbitis purpurea; 20 g a.i./ha): 80%; Herbicidal action against [%] PHBPU (Pharbitis purpurea; 80 g a.i./ha): 80%; Herbicidal action against [%] VIOTR (Viola tricolor; 20 g a.i./ha): 90%
5 | CSCCOC(=O)C1C=CC(NC(=O)C2(C(F)(F)F)CC(c3cc(F)cc(F)c3)=NO2)C1 (stereo not drawn) [Example I-17] | 80 | 80 | 100 | 100 | 100 | 100 | 80 | 90 | 90 | 90 | 90 | 90 | 80 | 90 | 80 | 80 | 80 | 80 | 90 | 90 | Herbicidal action against [%] ABUTH (Abutilon theophrasti; 20 g a.i./ha): 80%; Herbicidal action against [%] ECHCG (Echinochloa crus-galli; 20 g a.i./ha): 80%; Herbicidal action against [%] MATIN (Matricaria inodora; 20 g a.i./ha): 80%; Herbicidal action against [%] SETVI (Setaria viridis; 20 g a.i./ha): 80%; Herbicidal action against [%] POLCO (Polygonum convolvulus; 20 g a.i./ha): 80%; Herbicidal action against [%] POLCO (Polygonum convolvulus; 80 g a.i./ha): 80%; Herbicidal action against [%] PHBPU (Pharbitis purpurea; 20 g a.i./ha): 80%; Herbicidal action against [%] PHBPU (Pharbitis purpurea; 80 g a.i./ha): 80%; Herbicidal action against [%] VIOTR (Viola tricolor; 20 g a.i./ha): 80%; Herbicidal action against [%] VIOTR (Viola tricolor; 80 g a.i./ha): 80%
6 | CSCCOC(=O)C1C=CC(NC(=O)C2(C3CC3)CC(c3cc(F)cc(F)c3)=NO2)C1 (stereo not drawn) [Example I-28] | 80 | 80 | 90 | 90 | 90 | 90 | 90 | 90 | 90 | 90 | 90 | 90 | 90 | 90 | 90 | 90 | 90 | 90 | 90 | 90 | Herbicidal action against [%] ABUTH (Abutilon theophrasti; 20 g a.i./ha): 90%; Herbicidal action against [%] ECHCG (Echinochloa crus-galli; 20 g a.i./ha): 90%; Herbicidal action against [%] MATIN (Matricaria inodora; 20 g a.i./ha): 80%; Herbicidal action against [%] SETVI (Setaria viridis; 20 g a.i./ha): 90%; Herbicidal action against [%] POLCO (Polygonum convolvulus; 20 g a.i./ha): 80%; Herbicidal action against [%] POLCO (Polygonum convolvulus; 80 g a.i./ha): 90%; Herbicidal action against [%] VIOTR (Viola tricolor; 20 g a.i./ha): 90%; Herbicidal action against [%] VIOTR (Viola tricolor; 80 g a.i./ha): 80%
